Legend:
M catarrhalis (Mcat-res) = assay: broth test of alpha 4 co-cultured with resistant M catarrhalis (Mcat-res), with amitrole; format: cell-based; details: amitrole 50 mM in broth, 7 hours, 37° C.
Procedure: Amitrole is an irreversible catalase inhibitor [12]. If an increased or more efficient catalase production was involved in the development of resistance of M cararrhalis to an isolate of AHS. This resistance would be reverted by addition of amitrole. In broth tests with alpha 4 together with M catarrhalis in 5 ml broth, 50 mM (0.1 ml) of amitrole (3-amino-1,2,4-triazole), was added into the solution and incubated for 7 hours at 37° C. in air with intermittent shaking. The isolate of M catarrhalis (Mcat-res) had developed resistance against alpha 4 after co-culturing in broth. CFU counts were calculated at start and after 7 hours of incubation. Alpha 4 with M catarrhalis in broth without amitrole, broth and M catarrhalis alone and M catarrhalis alone with amitrole in broth served as controls.

H influenzae = assay: filtrate test: inhibitory effect of cell-free PBS filtrate of AHS on growth (CFU) of H influenzae; format: cell-based
Procedure: Numbers of colony forming units (CFU) were counted after serial dilutions in PBS and growth over night at 37° C. in air. Identification of the bacteria was based on different morphology of the isolates growing on the agar plates. AHS and M catarrhalis were grown on agar plates with 7% human blood and McLeod plates were used when H influenzae was assayed.
To achieve a filtrate with inhibitory activity, about 10^6 CFU of AHS were inoculated in 4 vials, each containing 15 ml of broth and incubated for 12 hours. The suspension was then centrifuged at 3000 rpm for 15 min and the supernatant was thrown away. The bacteria were transferred into one vial and two ml of phosphate buffered saline (PBS) was added and incubated at 37° C. for 5 hours. The suspension was then passed through a 0.2 μm sterile filter to remove the bacteria. Otitis media pathogens (0.1 ml) were then added to the filtrate (1 ml) and incubated at 37° C. The controls were incubated in fresh PBS.
Catalase is a specific enzyme catalyzing the conversion of H2O2 into O2 and H2O. This reaction proceeds rapidly. Purified catalase from human erythrocytes (>30.000U/mg) was used in the assays. The assays were performed as described above in the filtrate tests, with the exception that catalase, 1000 U/ml (=0.01 ml), was added to the vials with filtrate and PBS. […]

[1] = trypsin tested together with hydrogen peroxide for catalase effect; format: biochemical

Nc1nc[nH]n1 [amitrole, 3-amino-1,2,4-triazole]
sensitivity of resistant M catarrhalis to inhibition of alpha 4 when amitrole added (M catarrhalis (Mcat-res)): became sensitive

Trypsin
reversal of the inhibitory effect of the cell-free filtrate of alpha 89 (H influenzae; trypsin 2.5 mg/ml, filtrate incubated with H influenzae): only slightly reverse | catalase effect [1]: no catalase effect

B1: Catalase: Purified catalase from human erythrocytes; enzyme catalyzing the conversion of H2O2 into O2 and H2O (protein, UniProt P04040 2-527, looked up)
Catalase: ADSRDPASDQMQHWKEQRAAQKADVLTTGAGNPVGDKLNVITVGPRGPLLVQDVVFTDEMAHFDRERIPERVVHAKGAGAFGYFEVTHDITKYSKAKVFEHIGKKTPIAVRFSTVAGESGSADTVRDPRGFAVKFYTEDGNWDLVGNNTPIFFIRDPILFPSFIHSQKRNPQTHLKDPDMVWDFWSLRPESLHQVSFLFSDRGIPDGHRHMNGYGSHTFKLVNANGEAVYCKFHYKTDQGIKNLSVEDAARLSQEDPDYGIRDLFNAIATGKYPSWTFYIQVMTFNQAETFPFNPFDLTKVWPHKDYPLIPVGKLVLNRNPVNYFAEVEQIAFDPSNMPPGIEASPDKMLQGRLFAYPDTHRHRLGPNYLHIPVNCPYRARVANYQRDGPMCMQDNQGGAPNYYPNSFGAPEQQPSALEHSIQYSGEVRRFNTANDDNVTQVRAFYVNVLNEEQRKRLCENIAGHLKDAQIFIQKKAVKNFTEVHPDYGSHIQALLDKYNAEKPKNAIHTFVQSGSHLAAREKANL
reversal of the inhibitory effect of the cell-free filtrate of AHS (H influenzae; catalase 1000U/ml, filtrate of alpha 89 incubated with H influenzae): completely reverse
